Key:
[1] = biological target: Replicase polyprotein 1ab (Human coronavirus HKU1 (isolate N5), UniProt P0C6X4); experiment: FRET protease activity assay
Description: (§1) PF-00835231 was evaluated against 3CLpro from a variety of other coronaviruses representing alpha, beta and gamma groups of Coronaviridae, using biochemical F rster Resonance Energy Transfer (FRET) protease activity assays.

[2] = biological target: Replicase polyprotein 1ab (Avian infectious bronchitis virus (strain Beaudette CK), UniProt P0C6Y2); experiment: FRET protease activity assay
Sequence of Replicase polyprotein 1ab (Avian infectious bronchitis virus (strain Beaudette CK), UniProt P0C6Y2) (P0C6Y2 2780-3086 limits assumed): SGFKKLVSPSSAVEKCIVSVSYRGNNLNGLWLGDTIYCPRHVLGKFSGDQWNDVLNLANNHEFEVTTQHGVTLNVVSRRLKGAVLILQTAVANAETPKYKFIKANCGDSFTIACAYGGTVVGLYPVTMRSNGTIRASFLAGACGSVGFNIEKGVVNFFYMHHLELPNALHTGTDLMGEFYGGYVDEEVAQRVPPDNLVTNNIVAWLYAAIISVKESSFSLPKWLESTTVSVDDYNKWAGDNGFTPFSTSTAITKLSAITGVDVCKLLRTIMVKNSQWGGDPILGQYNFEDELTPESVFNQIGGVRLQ
Description: as §1

Sequence of Replicase polyprotein 1ab (Human coronavirus HKU1 (isolate N5), UniProt P0C6X4) (P0C6X4 3285-3587 limits assumed): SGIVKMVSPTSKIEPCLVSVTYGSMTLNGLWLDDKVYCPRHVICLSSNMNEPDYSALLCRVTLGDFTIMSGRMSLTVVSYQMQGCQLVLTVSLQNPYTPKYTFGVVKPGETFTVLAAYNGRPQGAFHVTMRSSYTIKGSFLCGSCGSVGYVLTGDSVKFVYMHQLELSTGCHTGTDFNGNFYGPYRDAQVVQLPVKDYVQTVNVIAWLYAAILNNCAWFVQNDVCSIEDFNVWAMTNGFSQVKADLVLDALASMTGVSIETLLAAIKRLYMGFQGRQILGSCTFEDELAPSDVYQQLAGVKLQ

COc1cccc2[nH]c(C(=O)N[C@@H](CC(C)C)C(=O)N[C@@H](C[C@@H]3CCNC3=O)C(=O)CO)cc12 [WO2005113580-Ex-02]
Ki [1]: 0.85 nM
Ki [2]: 4 nM

From BindingDB's records for doi:10.1101/2020.09.12.293498 (Pfizer, 2020)
